Data published in ChEMBL document CHEMBL4152195, “Lipid reducing activity and toxicity profiles of a library of polyphenol derivatives” (Eur J Med Chem, 2018).
The source made the active and inactive calls. No cut-off for these calls is given here.

Assays:
3T3-L1 [1] = experiment: Cytotoxicity against mouse 3T3L1 cells at 50 uM after 48 hrs by sulforhodamine B assay; assay type: cell-based; details: 3t3-l1, 48 h
3T3-L1 [2] = experiment: Cytotoxicity against mouse 3T3L1 cells at 50 uM after 24 hrs by sulforhodamine B assay; assay type: cell-based; details: 3t3-l1, 24 h
Danio rerio [3] = organism: Danio rerio; experiment: Toxicity in zebra fish larvae assessed as induction of malformation at 50 uM after 24 to 48 hrs; assay type: organism-based; details: zebrafish, in vivo
Danio rerio [4] = organism: Danio rerio; experiment: Toxicity in zebra fish larvae at 5 uM after 48 hrs; assay type: organism-based; details: zebrafish, in vivo
Danio rerio [5] = organism: Danio rerio; experiment: Lipid lowering activity in zebrafish embryos by Nile red fat metabolism assay; assay type: functional, organism-based
Danio rerio [6] = organism: Danio rerio; experiment: Downregulation of fasn mRNA expression in zebra fish larvae at lipid lowering activity EC50 after 48 hrs by RT-PCR analysis; assay type: functional
Danio rerio [7] = organism: Danio rerio; experiment: Lipid lowering activity in zebrafish embryos at 5 uM by Nile red fat metabolism assay; assay type: functional, organism-based
Danio rerio [8] = organism: Danio rerio; experiment: Lipid lowering activity in zebrafish embryos 50 uM by Nile red fat metabolism assay; assay type: functional, organism-based

| Structure (SMILES) | Activity (3T3-L1 [1]) | Activity (3T3-L1 [2]) | Activity (Danio rerio [3]) | Activity (Danio rerio [4]) | EC50 (Danio rerio [5]) | Activity (Danio rerio [6]) | Activity (Danio rerio [7]) | fold change (FC) (Danio rerio [6]) | Activity (Danio rerio [8]) |
| --- | --- | --- | --- | --- | --- | --- | --- | --- | --- |
| O=c1c2cc(O)ccc2oc2cccc(O)c12 | 0 to 25% | 0 to 25% | Toxic | 0 to 25% |  |  |  |  |  |
| O=c1c2ccccc2oc2ccc(O)c(O)c12 | 0 to 25% | 0 to 25% |  | 0 to 25% | 130 nM | inactive | Active |  |  |
| CCCOc1ccc(NCC(C)C)c2c(=O)c3ccccc3sc12 | 0 to 25% | 0 to 25% |  | 0 to 25% | 70 nM | inactive | Active |  |  |
| COc1cc2c(c3oc4ccccc4c(=O)c13)OC(C)(C)CC2 | 0 to 25% | 0 to 25% |  | 0 to 25% | 730 nM |  | Active |  |  |
| CC1(C)C=Cc2cc(O)c3c(=O)c4ccccc4oc3c2O1 | 0 to 25% | 0 to 25% |  | 0 to 25% | 290 nM |  | Active |  |  |
| COc1ccc2c(=O)c3ccccc3oc2c1O | 0 to 25% | 0 to 25% |  | 0 to 25% | 480 nM |  | Active |  |  |
| O=c1c2ccccc2oc2cccc(O)c12 | 0 to 25% | 0 to 25% |  | 0 to 25% | 620 nM |  | Active |  |  |
| COc1c2c(cc3c(=O)c4cc(C)ccc4oc13)CCC(C)(C)O2 | 0 to 25% | 0 to 50% |  | 0 to 25% | 420 nM |  | Active |  |  |
| COc1cccc2oc3ccccc3c(=O)c12 | 0 to 25% | 0 to 25% |  | 0 to 25% | 790 nM |  | Active |  |  |
| COc1cc2oc3ccccc3c(=O)c2cc1OC | 0 to 25% | 0 to 25% |  | 0 to 25% | 280 nM |  | Active | 2 |  |
| COc1ccc2c(=O)c3ccccc3oc2c1OC | 0 to 25% | 0 to 25% |  | 0 to 25% | 360 nM |  | Active |  |  |
| Oc1ccc(/C=C/c2cc(O)cc(O)c2)cc1 [RESVERATROL] |  |  |  |  | 600 nM |  | Active |  | Active |
